Experimental data as given in patent publication US10329304B2, “Compounds and methods for inhibition of hedgehog signaling and phosphodiesterase” (Vanderbilt University, priority 2014, dated 2019).

These molecules were tested on zebrafish embryos (assay: Zebrafish embryo phenotypic assay (ZF)). Details: wild-type embryonic zebrafish, dosed 5 hpf.
Format: in vivo
Description: All zebrafish experiments were approved by Vanderbilt University Institutional Animal Care and Use Committee. Wild-type zebrafish of AB strain were maintained using standard protocols. Chemical screen for small molecules was performed as previously described. Briefly, pairs of zebrafish were mated, and fertilized eggs were arrayed in 96-well microtiter plates (5 embryos/well) containing 250 μl E3 water. At ˜4-hpf, small molecule library from Vanderbilt High Throughput Screening Facility was added to each well to the final concentration of 5 μM. Embryos were incubated at 28.5° C. until 24 and 48-hpf, when they were examined for gross morphologic changes indicative of disruption in embryonic patterning. A total of ˜30,000 compounds were screened.
ZF refers to wild-type embryonic zebrafish phenotypic assay involving dosing n=˜10 embryos in E3 egg water with compound from either a stock of 1 mM or 10 mM in DMSO at 5 hours post-fertilization and observing at 24, 48, and 72 hours post-fertilization.

Row | Structure (SMILES) | ZF Phenotype EC100
1 | CCCCN1CCc2c(sc3nc(SCC(=O)c4ccccc4)n(C4CC4)c(=O)c23)C1 [KYK-1-103-2] | >50 µM
2 | COC(=O)c1c(NC(=S)NC2CC2)sc2c1CCNC2 [KYK-1-96] | >50 µM
3 | O=C(CSc1nc2sc(-c3ccc(F)cc3)cc2c(=O)n1C1CC1)c1ccccc1 [JEH-2-034] | >50 µM
4 | C=C(C)Cn1c(SCc2nc3ccc(C(=O)O)cc3[nH]2)nc2sc3c(c2c1=O)CCCC3 [KK-14-096-1] | >50 µM
5 | C=C(C)Cn1c(SCC(=O)c2cc3ccccc3o2)nc2sc3c(c2c1=O)CCCC3 [KK-14-094-1] | >50 µM
6 | O=c1c2ccsc2nc(SCc2ccc(Br)cc2)n1C1CC1 [JEH-1-190-2] | 50 µM
7 | O=c1c2ccsc2nc(SCc2ccccc2)n1C1CC1 [JEH-1-190-1] | 50 µM
8 | O=C(CSc1nc2sccc2c(=O)n1C1CC1)N1CCOCC1 [JEH-1-103] | >50 µM
9 | C=C(C)Cn1c(SCc2nc3ccc(S(=O)(=O)Nc4ccccc4OC)cc3[nH]2)nc2sc3c(c2c1=O)CCCC3 [KK-093-2] | >50 µM
10 | CSc1nc2sc3c(c2c(=O)n1C1CC1)CCCC3 [JEH-1-127] | >50 µM
11 | O=C(CSc1nc2sc3c(c2c(=O)n1-c1ccc(Br)cc1)CCCC3)c1cccs1 [JEH-1-050-1] | >50 µM
12 | C=C(C)Cn1c(SCC(=O)N2CCOCC2)nc2sccc2c1=O [JEH-1-104] | >50 µM
13 | C=C(C)Cn1c(SCc2nc3ccc(Cl)cc3o2)nc2sc3c(c2c1=O)CCCC3 [KK-14-094-3] | >50 µM
14 | O=C(CSc1nc2sccc2c(=O)n1CC1CC1)c1cccs1 [JEH-1-065-1] | 5 µM
15 | O=C(CSc1nc2sc3c(c2c(=O)n1C1CC1)CCN(S(=O)(=O)c1ccc(Cl)cc1)C3)c1ccccc1 [KYK-1-58] | >50 µM
16 | COc1ccc(-c2cc3c(=O)n(C4CC4)c(SCC(=O)c4ccccc4)nc3s2)cc1 [JEH-2-018] | >50 µM
17 | C=C(C)Cn1c(SCC(=O)c2ccc(Cl)s2)nc2sc3c(c2c1=O)CCCC3 [KK-14-094-2] | >50 µM
18 | O=C(CSc1nc2sc3c(c2c(=O)n1C1CC1)CCN(CCCc1ccccc1)C3)c1ccccc1 [KYK-1-88] | >50 µM
19 | O=C(CSc1nc2sc3c(c2c(=O)n1C1CC1)CCN(C(=O)c1ccc(Cl)cc1)C3)c1ccccc1 [KYK-1-54] | >50 µM
